Patent publication US8962313B2, “Method for the simultaneous induction of CTL and γδT cell” (Medinet Co., Ltd., priority 2008, dated 2015)

Assays:
Type in all cases: cell-based, human
[1] = tested on: disease antigen specific CD8-positive T cells in peripheral blood mononuclear cells; test: Induction of disease antigen specific CD8-positive T cells (CTLs) in cultured peripheral blood mononuclear cells, FACS with Mart-1 tetramer; settings: 5 μM zoledronic acid, 1,000 U/mL IL-2, Disease Antigen (+) = plus 2 μg/ml Mart-1 (A27L)
Description: (§1) 1) Peripheral blood (42 ml) was collected from a healthy donor and peripheral blood mononuclear cells were separated therefrom using a density gradient solution for blood cell separation.
(§2) 2) The resultant peripheral blood mononuclear cells were suspended in AIM-V.
(§3) 3) These peripheral blood mononuclear cells (8×10^6/4 mL) were seeded in a 6-well plate (SUMILON). Thereto was added 1,000 U/mL IL-2, to which 5 μM zoledronic acid (ZOMETA (trade name)) and 2 μg/ml Mart-1 (A27L, sequence: […]) as a peptide were further added, followed by starting culture under conditions of 37° C. and 5% CO2 concentration.
(§4) 4) In addition, AB serum was added in an amount of 10% after starting the culture.
(§5) 5) AIM-V containing 1,000 U/ml IL-2 and AB serum were added depending on the proliferation of cells, which were then cultured for 14 days.
(§6) 6) In the cell population obtained after culture for 7 days or 14 days as described above, the percentage of disease antigen specific CD8-positive T cells and the percentage of cells expressing TCRVγ9 were measured using an anti-CD8 antibody (BD Pharmingen), T-Select HLA-A*0201 Mart-1 Tetramer […] (MBL), an anti-TCRVγ9 antibody (Beckman Coulter) and an anti-CD3 antibody (Beckman Coulter) with a fluorescence-activated cell sorter (hereinafter referred to as FACS; Epics XL-MCL ADC, Beckman Coulter).

[2] = tested on: γδT cells in peripheral blood mononuclear cells; test: Induction of γδT cells (TCRVγ9-expressing cells) in cultured peripheral blood mononuclear cells, FACS; settings: 5 μM zoledronic acid, 1,000 U/mL IL-2, Disease Antigen (+) = plus 2 μg/ml Mart-1 (A27L)
Description: as §1, §2, §3, §4, §5, §6

[3] = tested on: CD56 on γδT cells; test: Surface antigen (CD3, Vγ9-TCR, CD56) expression ratio of γδT cells in cultured peripheral blood mononuclear cells, FACS; settings: Day 13 of culture; 5 μM zoledronic acid, 1,000 U/mL IL-2; Disease Antigen (+) = plus 2 μg/ml Mart-1 (A27L)
Description: Whether the addition of a disease antigen affects the expression ratio of CD56 on γδT Cells or not was examined by the following procedures. CD56 is an isoform of a neural cell adhesion molecule (N-CAM) and an adhesion factor known as a marker for NK cells. It is one of the markers providing indicators of the cytotoxic activity of γδT cells.
1) Peripheral blood (8 ml) was collected from a healthy donor and peripheral blood mononuclear cells were separated therefrom using a density gradient solution for blood cell separation.
as §2
3) These peripheral blood mononuclear cells (1.8×10^6/[…]) were seeded in a 12-well plate (SUMILON). Thereto was added 1,000 U/mL IL-2, to which 5 μM zoledronic acid (ZOMETA) and 2 μg/ml Mart-1 (A27L) as a peptide were further added, followed by starting culture under conditions of 37° C. and 5% CO2 concentration.
as §4
5) AIM-V containing 1,000 U/ml IL-2 and AB serum were added depending on the proliferation of cells, which were then cultured for up to 14 days.
6) In the cell population obtained after culture for up to 14 days as described above, the percentage of cells expressing TCRVγ9 or the percentage of cells expressing CD-56 were measured using an anti-TCRVγ9 antibody (Beckman Coulter), an anti-CD56 antibody (Beckman Coulter) and an anti-CD3 antibody (Beckman Coulter) with FACS (Epics XL-MCL ADC, Beckman Coulter).

O=P(O)(O)C(O)(Cn1ccnc1)P(=O)(O)O [zoledronic acid]
Expansion Fold (times) of Disease Antigen Specific CD8-Positive T Cells Contained in Mononuclear Cells ([1]; Donor A, 7 days of culture): 0.00 times
Percentage (%) of Disease Antigen Specific CD8-Positive T Cells Contained in Mononuclear Cells ([1]; Donor A, 7 days of culture): 0.00%
Expansion Fold (times) of Disease Antigen Specific CD8-Positive T Cells Contained in Mononuclear Cells ([1]; Donor A, 14 days of culture): 0.00 times
Percentage (%) of Disease Antigen Specific CD8-Positive T Cells Contained in Mononuclear Cells ([1]; Donor A, 14 days of culture): 0.00%
Expansion Fold (times) of Disease Antigen Specific CD8-Positive T Cells Contained in Mononuclear Cells ([1]; Donor B, 7 days of culture): 1.79 times
Percentage (%) of Disease Antigen Specific CD8-Positive T Cells Contained in Mononuclear Cells ([1]; Donor B, 7 days of culture): 0.01%
Expansion Fold (times) of Disease Antigen Specific CD8-Positive T Cells Contained in Mononuclear Cells ([1]; Donor B, 14 days of culture): 0.00 times
Percentage (%) of Disease Antigen Specific CD8-Positive T Cells Contained in Mononuclear Cells ([1]; Donor B, 14 days of culture): 0.00%
Expansion Fold (times) of Disease Antigen Specific CD8-Positive T Cells Contained in Mononuclear Cells ([1]; Donor C, 7 days of culture): 0.57 times
Percentage (%) of Disease Antigen Specific CD8-Positive T Cells Contained in Mononuclear Cells ([1]; Donor C, 7 days of culture): 0.02%
Expansion Fold (times) of Disease Antigen Specific CD8-Positive T Cells Contained in Mononuclear Cells ([1]; Donor C, 14 days of culture): 0.00 times
Percentage (%) of Disease Antigen Specific CD8-Positive T Cells Contained in Mononuclear Cells ([1]; Donor C, 14 days of culture): 0.00%
Expansion Fold (times) of γδT Cells Contained in Mononuclear Cells ([2]; Donor A, 7 days of culture): 50.40 times
Percentage (%) of γδT Cells Contained in Mononuclear Cells ([2]; Donor A, 7 days of culture): 43.7%
Expansion Fold (times) of γδT Cells Contained in Mononuclear Cells ([2]; Donor A, 14 days of culture): 4027.31 times
Percentage (%) of γδT Cells Contained in Mononuclear Cells ([2]; Donor A, 14 days of culture): 80.9%
Expansion Fold (times) of γδT Cells Contained in Mononuclear Cells ([2]; Donor B, 7 days of culture): 31.31 times
Percentage (%) of γδT Cells Contained in Mononuclear Cells ([2]; Donor B, 7 days of culture): 68.2%
Expansion Fold (times) of γδT Cells Contained in Mononuclear Cells ([2]; Donor B, 14 days of culture): 1328.85 times
Percentage (%) of γδT Cells Contained in Mononuclear Cells ([2]; Donor B, 14 days of culture): 99.0%
Expansion Fold (times) of γδT Cells Contained in Mononuclear Cells ([2]; Donor C, 7 days of culture): 4.97 times
Percentage (%) of γδT Cells Contained in Mononuclear Cells ([2]; Donor C, 7 days of culture): 28.6%
Expansion Fold (times) of γδT Cells Contained in Mononuclear Cells ([2]; Donor C, 14 days of culture): 1244.02 times
Percentage (%) of γδT Cells Contained in Mononuclear Cells ([2]; Donor C, 14 days of culture): 89.2%
Surface Antigen Expression Ratio (%): CD3, Gate Area Live Cells [3]: 98.5%
Surface Antigen Expression Ratio (%): CD56, Gate Area CD3 [3]: 53.1%
Surface Antigen Expression Ratio (%): CD56, Gate Area Live Cells [3]: 54.4%
Surface Antigen Expression Ratio (%): CD56, Gate Area Vγ9 [3]: 53.1%
Surface Antigen Expression Ratio (%): Vγ9-TCR, Gate Area Live Cells [3]: 97.0%
